Assay results published in PubChem BioAssay AID270 (DTP/NCI, 2004).
Values joined by “and” are separate entries in the source; they are usually repeats but may differ in a detail not shown here. Equal entries are not always repeated. Results filed as inconclusive are left out.

System: BDF1 mice, s.c. Lewis lung carcinoma, T/C %
Test: NCI In Vivo Anticancer Drug Screen. Data for tumor model Lewis Lung Carcinoma (subcutaneous) in B6D2F1 (BDF1) mice
How it was run: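 Readout: survival or tumor size, expressed as treated (T) over vehicle control (C). Transplantable tumor implanted in mice; compound given to the treated group.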

[1] = endpoint: mean tumor weight, dose: 100.0 mg/kg/injection, schedule: Q01DX011 (sc), vehicle: steriod suspending solution, higher = larger tumour
[2] = endpoint: mean tumor weight, dose: 200.0 mg/kg/injection, schedule: Q01DX011 (sc), vehicle: steriod suspending solution, higher = larger tumour
[3] = endpoint: median survival time, dose: 100.0 mg/kg/injection, schedule: Q01DX009 (ip), vehicle: saline with Tween-80, higher = longer survival
[4] = endpoint: median survival time, dose: 200.0 mg/kg/injection, schedule: Q01DX009 (ip), vehicle: saline with Tween-80, higher = longer survival

COc1c(OC)c(OC)c(-c2cc(=O)c3c(OC)c(OC)c(OC)c(OC)c3o2)c(OC)c1OC
T/C (endpoint: mean tumor weight, dose: 50.0 mg/kg/injection, schedule: Q01DX011 (sc), vehicle: steriod suspending solution, higher = larger tumour): 97 % of control
T/C [1]: 105 % of control
T/C [2]: 97 % of control
T/C (endpoint: mean tumor weight, dose: 400.0 mg/kg/injection, schedule: Q01DX011 (sc), vehicle: steriod suspending solution, higher = larger tumour): 83 % of control

Cc1ccc(S(=O)(=O)[O][Pb]([CH3])([CH3])[CH3])cc1
T/C (endpoint: median survival time, dose: 0.18 mg/kg/injection, schedule: Q01DX009 (ip), vehicle: saline, higher = longer survival): 98 % of control and 122 % of control
T/C (endpoint: median survival time, dose: 0.37 mg/kg/injection, schedule: Q01DX009 (ip), vehicle: saline, higher = longer survival): 108 % of control
T/C (endpoint: median survival time, dose: 0.75 mg/kg/injection, schedule: Q01DX009 (ip), vehicle: saline, higher = longer survival): 116 % of control
T/C (endpoint: median survival time, dose: 1.5 mg/kg/injection, schedule: Q01DX009 (ip), vehicle: saline, higher = longer survival): 109 % of control

COc1ccc(-c2ccc(OC)c(OC)c2OC)c(N)c1
T/C (endpoint: mean tumor weight, dose: 375.0 mg/kg/injection, schedule: Q01DX011 (ip), vehicle: carboxymethylcellulose (CMC), higher = larger tumour): 58 % of control
T/C (endpoint: mean tumor weight, dose: 500.0 mg/kg/injection, schedule: Q01DX011 (ip), vehicle: carboxymethylcellulose (CMC), higher = larger tumour): 89 % of control
T/C (endpoint: mean tumor weight, dose: 625.0 mg/kg/injection, schedule: Q01DX011 (ip), vehicle: carboxymethylcellulose (CMC), higher = larger tumour): 74 % of control
T/C (endpoint: mean tumor weight, dose: 750.0 mg/kg/injection, schedule: Q01DX011 (ip), vehicle: carboxymethylcellulose (CMC), higher = larger tumour): 56 % of control
T/C (endpoint: median survival time, dose: 25.0 mg/kg/injection, schedule: Q01DX009 (ip), vehicle: saline with Tween-80, higher = longer survival): 101 % of control
T/C (endpoint: median survival time, dose: 50.0 mg/kg/injection, schedule: Q01DX009 (ip), vehicle: saline with Tween-80, higher = longer survival): 107 % of control
T/C [3]: 108 % of control
T/C [4]: 106 % of control

Nc1ncnc2c1ncn2C1CCCO1 (stereo not drawn)
T/C (endpoint: mean tumor weight, dose: 50.0 mg/kg/injection, schedule: Q01DX011 (ip), vehicle: other, higher = larger tumour): 75 % of control
T/C (endpoint: mean tumor weight, dose: 100.0 mg/kg/injection, schedule: Q01DX011 (ip), vehicle: other, higher = larger tumour): 56 % of control
T/C (endpoint: mean tumor weight, dose: 200.0 mg/kg/injection, schedule: Q01DX011 (ip), vehicle: other, higher = larger tumour): 37 % of control

CC/C(=C(\CC)c1ccc(OC)cc1)c1ccc(O)cc1
T/C (endpoint: mean tumor weight, dose: 15.0 mg/kg/injection, schedule: Q01DX011 (sc), vehicle: steriod suspending solution, higher = larger tumour): 54 % of control
T/C (endpoint: mean tumor weight, dose: 30.0 mg/kg/injection, schedule: Q01DX011 (sc), vehicle: steriod suspending solution, higher = larger tumour): 35 % of control
T/C (endpoint: mean tumor weight, dose: 60.0 mg/kg/injection, schedule: Q01DX011 (sc), vehicle: steriod suspending solution, higher = larger tumour): 23 % of control
T/C [1]: 7 % of control
T/C (endpoint: mean tumor weight, dose: 120.0 mg/kg/injection, schedule: Q01DX011 (sc), vehicle: steriod suspending solution, higher = larger tumour): 31 % of control and 36 % of control
T/C [2]: 22 % of control
T/C (endpoint: mean tumor weight, dose: 240.0 mg/kg/injection, schedule: Q01DX011 (sc), vehicle: steriod suspending solution, higher = larger tumour): 31 % of control
T/C (endpoint: mean tumor weight, dose: 300.0 mg/kg/injection, schedule: Q01DX011 (sc), vehicle: steriod suspending solution, higher = larger tumour): 22 % of control

Cc1ccc2nc(-c3ccc(N=Cc4ccccc4O)cc3)sc2c1
T/C (endpoint: median survival time, dose: 200.0 mg/kg/injection, schedule: Q01DX009 (ip), vehicle: olive oil, sesame oil, peanut oil, higher = longer survival): 87 % of control

O=[N+]([O-])c1ccc(/C=N\Nc2ccc([N+](=O)[O-])cn2)cc1
T/C (endpoint: median survival time, dose: 12.5 mg/kg/injection, schedule: Q01DX009 (ip), vehicle: Klucel (hydroxypropylcellulose) (HPC), higher = longer survival): 88 % of control
T/C (endpoint: median survival time, dose: 25.0 mg/kg/injection, schedule: Q01DX009 (ip), vehicle: Klucel (hydroxypropylcellulose) (HPC), higher = longer survival): 104 % of control

Nc1n[nH]c(N)n1
T/C [3]: 113 % of control
T/C [4]: 102 % of control
T/C (endpoint: median survival time, dose: 400.0 mg/kg/injection, schedule: Q01DX009 (ip), vehicle: saline with Tween-80, higher = longer survival): 95 % of control
T/C (endpoint: median survival time, dose: 800.0 mg/kg/injection, schedule: Q01DX009 (ip), vehicle: saline with Tween-80, higher = longer survival): 110 % of control
T/C (endpoint: median tumor weight (est.), dose: 100.0 mg/kg/injection, schedule: Q01DX009 (ip), vehicle: saline with Tween-80, higher = larger tumour): 100 % of control
T/C (endpoint: median tumor weight (est.), dose: 200.0 mg/kg/injection, schedule: Q01DX009 (ip), vehicle: saline with Tween-80, higher = larger tumour): 103 % of control
T/C (endpoint: median tumor weight (est.), dose: 400.0 mg/kg/injection, schedule: Q01DX009 (ip), vehicle: saline with Tween-80, higher = larger tumour): 97 % of control
T/C (endpoint: median tumor weight (est.), dose: 800.0 mg/kg/injection, schedule: Q01DX009 (ip), vehicle: saline with Tween-80, higher = larger tumour): 91 % of control
